According to patent US5792759A, “17-hydroxyiminoalkyl and 17-hydroxyiminomethylalkenyl cyclopentaneperhydrophenanthrene derivatives active on the cardiovascular system, a process for their preparation and pharmaceutical compositions containing the same” (Sigma-Tau Industrie Farmaceutiche Riunite S.p.A., priority 1995, dated 1998):
Like-named read-outs stand apart in the source and are kept apart here.

Legend:
[1] = target: T1, purified Na^+, K^+ -ATPase (Canis lupus familiaris, UniProt P50997); experiment: inhibition of the activity of the purified Na+, K+-ATPase (% of hydrolysis of 32P-ATP); assay type: biochemical
T1 construct: Na^+, K^+ -ATPase receptor purified according to Jorghensen; from tissue
Excerpt: (§1) To test the affinity for the receptor site of the Na^+, K^+ -ATPase and the agonist or inhibitory activity on the enzyme, the following tests were used:
b) inhibition of the activity of the purified Na^+, K^+ -ATPase measured as % of hydrolysis of ^32 P-ATP in the presence and in the absence of the tested compound (Doucet A. et al., Am. J. Physiol., 1986, 251, F851).

[2] = target: T2, Na^+, K^+ -ATPase receptor (Canis lupus familiaris, UniProt P50997); experiment: displacement of the specific 3H-oubain binding from the Na+, K+-ATPase receptor; settings: 3H-oubain displacement from purified Na+,K+-ATPase; read-out: Binding ^3 H-oubain displacement -log IC50 (converted)
T2 construct: Na^+, K^+ -ATPase receptor purified according to Jorghensen; from tissue
Excerpt: as §1
a) displacement of the specific ^3 H-oubain binding from the Na^+, K^+ -ATPase receptor purified according to Jorghensen (Jorghensen P., BBA, 1974, 356, 36) and Erdmann (Erdmann E. et al., Arzneim. Forsh, 1984, 34,1314);

Na^+, K^+ -ATPase [3] = settings: reported in DE 4,227,626; cited from earlier work
Na^+, K^+ -ATPase [4] = settings: reported in DE 4,227,626; cited from earlier work; remark: listed apart in the source
[5] = purified Na+,K+-ATPase, 32P-ATP hydrolysis, read-out: Inhibitory activity -log IC50 (converted)

Work on `CN(C)CCCON=C[C@H]1CC[C@H]2[C@@H]3CC=C4C[C@@H](O)CC[C@]4(C)[C@H]3CC[C@]12C` (mixture of isomers) [I-l, (EZ)-17β-(3-dimethylaminopropoxyiminomethyl)-androst-5-en-3β-ol] yielded an IC50 [1] of 25100 nM and an IC50 [2] of 1260 nM.
With `C[C@]12CC[C@H]3[C@@H](CC=C4C[C@@H](O)CC[C@@]43C)[C@@H]1CC[C@@H]2C=NOCCCCN` (mixture of isomers) [I-n, (EZ)-17β-(4-aminobutoxyiminomethyl)-androst-5-en-3β-ol] the IC50 [1, 5] was 20000 nM and the IC50 [2] was 2000 nM.
For `CC12CCC(O)CC1CCC1C2CCC2(C)C(C=NO)CCC12O` (stereo not drawn) [17-hydroxyiminomethyl-5β-androstan-3β-14β-diol], the “affinity for Na^+, K^+ -ATPase” value (Na^+, K^+ -ATPase [3]) is given as “good affinity” and the “inhibition of the enzyme Na^+, K^+ -ATPase” value (Na^+, K^+ -ATPase [4]) is given as “inhibit the enzyme”.
`CN(C)CCO/N=C/[C@H]1CC[C@H]2[C@@H]3CC[C@@H]4C[C@@H](OCCN5CCCC5)CC[C@]4(C)[C@H]3CC[C@]12C` [I-b, (E)-17β-[2-dimethylaminoethoxyiminomethyl]-3β-[2-(1-pirrolidinyl)ethoxy]-5β-androstane] showed an IC50 [1] of 7940 nM and an IC50 [2] of 501 nM.
With `C[C@]12CC[C@H]3[C@@H](CC=C4C[C@@H](O)CC[C@@]43C)[C@@H]1CC[C@@H]2/C=N/OCCN` [I-e, (E)-17β-(2-aminoethoxyiminomethyl)-androst-5-en-3β-ol] the IC50 [1, 5] was 2000 nM and the IC50 [2] was 158 nM.
`CN(C)CCO/N=C/[C@H]1CC[C@H]2[C@@H]3CC=C4C[C@@H](O)CC[C@]4(C)[C@H]3CC[C@]12C` [I-f, (E)-17β-[2-dimethylaminoethoxyiminomethyl]-androst-5-en-3β-ol] showed an IC50 [1] of 79400 nM and an IC50 [2] of 5010 nM.
In the case of `C[C@]12CC[C@H]3[C@@H](CC=C4C[C@@H](O)CC[C@@]43C)[C@@H]1CC[C@@H]2/C=C/C=N/OCCN` [I-g, (E,E)-17β-[3-(2-aminoethoxyimino)-1-propenyl]-androst-5-en-3β-ol], the IC50 [1, 5] is reported as 1580 nM and the IC50 [2] is reported as 251 nM.
In the case of `CN(C)CCO/N=C/C=C/[C@H]1CC[C@H]2[C@@H]3CC=C4C[C@@H](O)CC[C@]4(C)[C@H]3CC[C@]12C` [I-h, (E,E)-17β-[3-(2-dimethylaminoethoxyimino)-1-propenyl]-androst-5-en-3β-ol], the IC50 [1] is reported as 5010 nM and the IC50 [2] is reported as 1000 nM.
With `CN(C)CCCO/N=C/C=C/[C@H]1CC[C@H]2[C@@H]3CC=C4C[C@@H](O)CC[C@]4(C)[C@H]3CC[C@]12C` [I-i, (E,E)-17β-[3-(3-dimethylaminopropoxyimino)-1-propenyl]-androst-5-en-3β-ol] the IC50 [1] was 2510 nM and the IC50 [2] was 631 nM.
Compound `C[C@]12CC[C@H]3[C@@H](CC=C4C[C@@H](O)CC[C@@]43C)[C@@H]1CC[C@@H]2/C=N/OCCCN` [I-m, (E)-17β-(3-aminopropoxyiminomethyl)-androst-5-en-3β-ol] has an IC50 [1] of 3980 nM and an IC50 [2] of 398 nM.
